Experiment [1] deals with T1, Dipeptidase 1 (Sus scrofa) (UniProt P22412).
T1 sequence (whole entry): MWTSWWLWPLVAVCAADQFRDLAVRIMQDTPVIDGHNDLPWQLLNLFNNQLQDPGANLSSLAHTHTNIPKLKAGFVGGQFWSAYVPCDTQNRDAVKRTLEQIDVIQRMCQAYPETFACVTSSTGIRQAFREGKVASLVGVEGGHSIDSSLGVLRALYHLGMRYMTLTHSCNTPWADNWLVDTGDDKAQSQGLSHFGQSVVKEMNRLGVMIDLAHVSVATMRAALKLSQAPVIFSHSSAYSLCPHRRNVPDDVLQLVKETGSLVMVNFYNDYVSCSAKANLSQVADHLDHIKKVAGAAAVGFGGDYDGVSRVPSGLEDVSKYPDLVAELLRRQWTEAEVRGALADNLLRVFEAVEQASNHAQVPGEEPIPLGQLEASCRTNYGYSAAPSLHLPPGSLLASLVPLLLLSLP
The experiment is described as follows: Relative hydrolysis to that of imipenem was determined by hog renal dehydropeptidase.

Experiment [2] can be described thus: Antimicrobial activity against Morganella morganii (GC 2213). Type of experiment: functional.
Experiment [3] deals with Staphylococcus aureus. The experiment is described as follows: Antimicrobial activity against methicillin - resistant Staphylococcus aureus (GC 2220). Format: functional.
Experiment [4] has as its system Escherichia coli. The experiment is described as follows: Antimicrobial activity against Escherichia coli (GC 2205). Format: functional.
Experiment [5] concerns Pseudomonas aeruginosa. Put plainly: Antimicrobial activity against Pseudomonas aeruginosa (GC 1544 OprD). Type of experiment: functional.
Experiment [6] is described as follows: Antimicrobial activity against Enterobacter cloacae (GC 2209). Type of experiment: functional.
The nature of experiment [7]: Antimicrobial activity against Enterococcus faecalis (GC 842). Format: functional.
For experiment [8], the system named is Pseudomonas aeruginosa. Put plainly: Antimicrobial activity against Pseudomonas aeruginosa (ATCC 27853). Type of experiment: functional.
Experiment [9] can be described thus: Antimicrobial activity against Xanthomonas maltophilia (GC 562). Type of experiment: functional. The settings on record: Stenotrophomonas maltophilia.
Experiment [10] can be described thus: Antimicrobial activity against Enterococcus faecium (GC 1182). Format: functional.
Experiment [11] relates to Escherichia coli. The experiment is described as follows: Antimicrobial activity against Escherichia coli (GC 1792). Format: functional.
The subject of experiment [12] is Staphylococcus aureus. The experiment is described as follows: Antimicrobial activity against Staphylococcus aureus (ATCC 29213). Format: functional.
Experiment [13] deals with Acinetobacter calcoaceticus. Put plainly: Antimicrobial activity against Acinetobacter calcoaceticus (GC 756). Type of experiment: functional.
The nature of experiment [14]: Antimicrobial activity against Citrobacter freundii (GC 2211). Type of experiment: functional.
Experiment [15] has as its system Escherichia coli. The experiment is described as follows: Antimicrobial activity against Escherichia coli (ATCC 25922). Type of experiment: functional.

Structures are written as SMILES. Converted amounts (≈) assume the structure as drawn.

One may read the MIC as the lowest concentration that inhibits growth of the organism.

Compound `C[C@@H](O)[C@H]1C(=O)N2C(C(=O)[O-])=C(S[C@@H]3CCO[C@@H]3CN)[C@H](C)[C@H]12.[Na+]` had a Relative hydrolysis in experiment [1] of 8.5. Moreover, the MIC is 0.5 µg/mL in [2]; 1 µg/mL against Staphylococcus aureus [3]; not above 0.06 µg/mL in the experiment on Escherichia coli [4]; 16 µg/mL with Pseudomonas aeruginosa [5]; not above 0.06 µg/mL in experiment [6]; 0.5 µg/mL in experiment [7]. The MIC in the experiment with Pseudomonas aeruginosa [8] was 8 µg/mL; in experiment [9] it was more than 128 µg/mL; in [10], 64 µg/mL; against Escherichia coli [11] it was not above 0.06 µg/mL; in the experiment with Staphylococcus aureus [12], not above 0.06 µg/mL; in experiment [13], 2 µg/mL. Also, the minimal inhibitory concentration (MIC) (in [14]; in the experiment on Escherichia coli [15]) was not above 0.06 µg/mL each time.

`C[C@H](N)C(=O)NC[C@H]1OCC[C@H]1SC1=C(C(=O)[O-])N2C(=O)[C@H]([C@@H](C)O)[C@H]2[C@H]1C.[Na+]` registered a Relative hydrolysis in experiment [1] of 12. For the same compound, the MIC is 1 µg/mL in [2]; 8 µg/mL in the experiment with Staphylococcus aureus [3]; not above 0.06 µg/mL with Escherichia coli [4]; 64 µg/mL against Pseudomonas aeruginosa [5]; 0.25 µg/mL in experiment [6]; 4 µg/mL in experiment [7]. For the same compound, the minimal inhibitory concentration (MIC) against Pseudomonas aeruginosa [8] is 32 µg/mL; in experiment [9], more than 128 µg/mL; in experiment [10] it was more than 128 µg/mL; in the experiment with Escherichia coli [11], not above 0.06 µg/mL; against Staphylococcus aureus [12] it was 0.12 µg/mL; in experiment [13], 16 µg/mL. For the same compound, the MIC in [14] was 1 µg/mL; against Escherichia coli [15], not above 0.06 µg/mL.

In the case of `C[C@@H](O)[C@H]1C(=O)N2C(C(=O)[O-])=C(SC3COC(C[N+](C)(C)C)C3)[C@H](C)[C@H]12` (stereo partly specified), the MIC in [2] amounted to 4 µg/mL (≈ 10.4 µM); in the experiment on Staphylococcus aureus [3] it was 16 µg/mL (≈ 41.6 µM); against Escherichia coli [4], 0.25 µg/mL (≈ 0.65 µM); in the experiment on Pseudomonas aeruginosa [5], 64 µg/mL (≈ 166 µM); in [6] it was 0.25 µg/mL (≈ 0.65 µM); in [7] it was 8 µg/mL (≈ 20.8 µM). For the same compound, the minimum inhibitory concentration (MIC) is 32 µg/mL (≈ 83.2 µM) in the experiment with Pseudomonas aeruginosa [8]; more than 128 µg/mL in experiment [9]; more than 128 µg/mL in experiment [10]; 0.25 µg/mL (≈ 0.65 µM) with Escherichia coli [11]; 0.12 µg/mL (≈ 0.312 µM) in the experiment with Staphylococcus aureus [12]; 16 µg/mL (≈ 41.6 µM) in experiment [13]. For the same compound, the MIC stood at 1 µg/mL (≈ 2.6 µM) in [14] and 0.25 µg/mL (≈ 0.65 µM) in the experiment on Escherichia coli [15].

With `CC(=O)NCC1CC(SC2=C(C(=O)[O-])N3C(=O)[C@H]([C@@H](C)O)[C@H]3[C@H]2C)CO1.[Na+]` (stereo partly specified), in experiment [1], the Relative hydrolysis turned out to be 4. Moreover, the MIC in [2] is 0.5 µg/mL; against Staphylococcus aureus [3], 16 µg/mL; against Escherichia coli [4] it was not above 0.06 µg/mL; against Pseudomonas aeruginosa [5], 128 µg/mL; in experiment [6], 0.5 µg/mL; in experiment [7] it was 8 µg/mL. Also, the minimum inhibitory concentration (MIC) is 64 µg/mL against Pseudomonas aeruginosa [8]; more than 128 µg/mL in [9]; more than 128 µg/mL in [10]; 0.12 µg/mL in the experiment with Escherichia coli [11]; 0.12 µg/mL in the experiment on Staphylococcus aureus [12]; 8 µg/mL in experiment [13]. The values for the minimal inhibitory concentration (MIC) (in [14]; against Escherichia coli [15]) were 2 µg/mL and not above 0.06 µg/mL, respectively.

In the case of `C[C@@H](O)[C@H]1C(=O)N2C(C(=O)[O-])=C(SC3COC(C/N=C/N)C3)[C@H](C)[C@H]12.[Na+]` (stereo partly specified), the MIC in [2] was 0.5 µg/mL; against Staphylococcus aureus [3], 8 µg/mL; in the experiment with Escherichia coli [4], not above 0.06 µg/mL; with Pseudomonas aeruginosa [5] it was 16 µg/mL; in [6], not above 0.06 µg/mL; in experiment [7], 2 µg/mL. Moreover, the MIC against Pseudomonas aeruginosa [8] is 8 µg/mL; in [9] it was more than 128 µg/mL; in experiment [10], more than 128 µg/mL; in the experiment with Escherichia coli [11], not above 0.06 µg/mL; in the experiment on Staphylococcus aureus [12], not above 0.06 µg/mL; in experiment [13] it was 2 µg/mL. Besides, the MIC (in experiment [14]; with Escherichia coli [15]) was not above 0.06 µg/mL in each case.

On to `C[C@@H](O)[C@H]1C(=O)N2C(C(=O)[O-])=C(SC3COC(C/N=C/N(C)C)C3)[C@H](C)[C@H]12.[Na+]` (stereo partly specified), for which the MIC in experiment [2] was found to be 2 µg/mL; in the experiment on Staphylococcus aureus [3], 16 µg/mL; against Escherichia coli [4], 0.12 µg/mL; against Pseudomonas aeruginosa [5], 32 µg/mL; in [6] it was 0.12 µg/mL; in experiment [7], 8 µg/mL. The MIC with Pseudomonas aeruginosa [8] was 16 µg/mL; in experiment [9] it was more than 128 µg/mL; in [10] it was more than 128 µg/mL; against Escherichia coli [11], 0.12 µg/mL; against Staphylococcus aureus [12], 0.12 µg/mL; in experiment [13], 16 µg/mL. Moreover, the MIC in experiment [14] turned out to be 0.5 µg/mL; with Escherichia coli [15], 0.12 µg/mL.

Take `CNCC(=O)NCC1CC(SC2=C(C(=O)[O-])N3C(=O)[C@H]([C@@H](C)O)[C@H]3[C@H]2C)CO1.[Na+]` (stereo partly specified): the MIC in [2] is 0.25 µg/mL; against Staphylococcus aureus [3] it was 16 µg/mL; in the experiment with Escherichia coli [4] it was not above 0.06 µg/mL; against Pseudomonas aeruginosa [5], 32 µg/mL; in [6] it was not above 0.06 µg/mL; in experiment [7], 4 µg/mL. Moreover, the minimal inhibitory concentration (MIC) against Pseudomonas aeruginosa [8] was 32 µg/mL; in [9], more than 128 µg/mL; in experiment [10], more than 128 µg/mL; in the experiment with Escherichia coli [11] it was not above 0.06 µg/mL; with Staphylococcus aureus [12], not above 0.06 µg/mL; in experiment [13], 2 µg/mL. The figures for the MIC (in [14]; in the experiment on Escherichia coli [15]) were 0.25 µg/mL and not above 0.06 µg/mL, respectively.

The values are drawn from ChEMBL document CHEMBL1150515, “Synthesis and structure-activity relationships of novel THF 1-methylcarbapenems II” (1997).
